We go through seven compounds from PMC11915372, “Identification of a Series Containing a Pentafluorophenyl Moiety That Targets Pks13 to Inhibit Growth of Mycobacterium tuberculosis” (ACS Infectious Diseases, 2025).

Converted amounts (≈) assume the structure as drawn. Like-named read-outs stand apart in the source and are kept apart here.

A short description of series [1]: physchem. It counts as physicochemical.
Series [2] can be described thus: physchem. To be noted: pH 7.4.
The format of series [3] is in vitro ADME, mouse. To be noted: mouse; for Mouse Heps Cl: hepatocytes.
The next series has as its system M. tuberculosis (H37Rv). Kind of series: microbe, parasite or virus in culture. It counts as cell-based, Mycobacterium tuberculosis. To be noted: for MIC: Mycobacterium tuberculosis, H37RV.
Series [4] is classed as in vitro ADME, mouse. Conditions: for Microsomal Cli: CD1, mouse; for Mouse micro Cl: microsomes.
A further series concerns HepG2 cells. In words: HepG2 cytotoxicity. To be noted: Homo sapiens, HepG2, read-out: HepG2 inhibitory concentration (IC50).
Series [5] has as its system M. tuberculosis H37Rv. Format: in vivo. To be noted: C57BL/6J mice, oral dosing for 8 days from day 1 post-infection, qPCR.
For series [6] the following is noted: mouse, in vivo.
The subject of series [7] is M. tuberculosis H37Rv. It counts as cell-based, Mycobacterium tuberculosis.
The conditions of series [8]: human liver microsomes.
For series [9] the following is noted: efficacy experiment at 20 times the oral PK dose.
The next series is described as follows: in vivo. Conditions: C57BL/6J, mouse, po.
The test system of series [10] is H37Rv growing inside J774 macrophages. Kind of series: Intramacrophage efficacy. Format: cell-based, Mycobacterium tuberculosis. To be noted: 7 days of treatment.
The nature of the next series: in vitro. Conditions: plasma.
Series [11] concerns mycolic acid biosynthesis. To be noted: with accumulation of mycolic acid precursors; cited from earlier work.
[12] abbreviates: pH 7.4, aqueous buffer, kinetic from dmso stock.
Where [13] appears, read: read-out: Wk2_7H9/DPPC/ casitone/ Tyloxapol MIC.
Where [14] appears, read: read-out: Wk2_ 7H9/DPPC/ cholesterol/BSA/ Tyloxapol MIC.
[15] abbreviates: read-out: Wk2_7H9/glucose/ BSA/Tyloxapol MIC.
[16] abbreviates: read-out: Wk2_7H9/glucose/ casitone/ Tyloxapol MIC.

Description for HepG2 cells: Assays to establish HepG2 cytotoxicity, in vitro microsomal/hepatocyte metabolic stability, aqueous kinetic solubility, and in vivo pharmacokinetic profiles were all performed as previously described.[15],[35]−[37]

In the case of `Cc1nc(C(=O)N(C)C)c(NC(=O)c2c(F)c(F)c(F)c(F)c2F)o1` [Compound 40, CN(C)C(=O)c1nc(oc1NC(=O)c1c(c(c(c(c1F)F)F)F)F)C], the solubility kinetic in the series “physchem [1]” (setting [12]) and in the series “physchem [1]” (read-out: Kin. Sol) was 242 µM (≈ 87.9 µg/mL) each time. Moreover, the chromatographic logD (as a rule, a lipophilicity value derived from retention on a column) in “physchem [2]” is 1.4. Also, the “Hepatocyte Cli” value in series [3] is 7.3 mL/min/g. Moreover, the “Mouse Heps Cl” value in series [3] is reported as 7.3 mL/min/g. For the same compound, the MIC in the series on M. tuberculosis (H37Rv) (read-out: H37Rv MIC A) was 12.5 µM (≈ 4.54 µg/mL); in the series with M. tuberculosis (H37Rv) (read-out: H37Rv MIC B), 19 µM (≈ 6.9 µg/mL); in the series on M. tuberculosis (H37Rv) (setting [13]), 12.5 µM (≈ 4.54 µg/mL); in the series with M. tuberculosis (H37Rv) (setting [14]) it was 19 µM (≈ 6.9 µg/mL); in the series on M. tuberculosis (H37Rv) (setting [15]), 19 µM (≈ 6.9 µg/mL); in the series on M. tuberculosis (H37Rv) (setting [16]) it was 9.4 µM (≈ 3.41 µg/mL). In [4], the “Microsomal Cli” value was found to be 0.846 mL/min/g. Also, the “Mouse micro Cl” value in series [4] is given as 0.85 mL/min/g. The IC50 in the series with HepG2 cells was over 100 µM.

Regarding `Cc1nc(-c2ncco2)c(NC(=O)c2c(F)c(F)c(F)c(F)c2F)o1` [Compound 41, Cc1nc(c(o1)NC(=O)c1c(c(c(c(c1F)F)F)F)F)-c1ncco1], the solubility kinetic in “physchem [1]” (setting [12]) and in the series “physchem [1]” (read-out: Kin. Sol) was 234 µM (≈ 84.1 µg/mL) in each case. For the same compound, the chromatographic logD in the series “physchem [2]” came to 1.7. Also, in series [3], the “Hepatocyte Cli” value is reported as 12 mL/min/g. Also, the “Mouse Heps Cl” value in series [3] was found to be 12 mL/min/g. In addition, the MIC in the series with M. tuberculosis (H37Rv) (read-out: H37Rv MIC A) stood at 0.4 µM (≈ 0.144 µg/mL); in the series with M. tuberculosis (H37Rv) (read-out: H37Rv MIC B), 1.2 µM (≈ 0.431 µg/mL); in the series with M. tuberculosis (H37Rv) (setting [13]) it was 0.4 µM (≈ 0.144 µg/mL); with M. tuberculosis (H37Rv) (setting [14]) it was 1.2 µM (≈ 0.431 µg/mL); in the series on M. tuberculosis (H37Rv) (setting [15]), 1.2 µM (≈ 0.431 µg/mL); in the series on M. tuberculosis (H37Rv) (setting [16]), 0.4 µM (≈ 0.144 µg/mL). The “Microsomal Cli” value in [4] came out at 0.5 mL/min/g. Also, the “Mouse micro Cl” value in [4] worked out at 0.51 mL/min/g. Besides, in the series with HepG2 cells, the IC50 is over 100 µM.

Turning to `Cc1nnc(-c2nc(C)oc2NC(=O)c2c(F)c(F)c(F)c(F)c2F)o1` [Compound 42, Cc1nnc(o1)-c1nc(oc1NC(=O)c1c(c(c(c(c1F)F)F)F)F)C], the solubility kinetic in “physchem [1]” (setting [12]) and in the series “physchem [1]” (read-out: Kin. Sol) was 174 µM (≈ 65.1 µg/mL) throughout. The compound further registered a chromatographic logD in “physchem [2]” of 1.1. For the same compound, the “Hepatocyte Cli” value in [3] was determined as 2.5 mL/min/g. Besides, the “Mouse Heps Cl” value in series [3] turned out to be 2.5 mL/min/g. The MIC with M. tuberculosis (H37Rv) (read-out: H37Rv MIC A) is 2.3 µM (≈ 0.861 µg/mL); in the series on M. tuberculosis (H37Rv) (read-out: H37Rv MIC B) it was 6.3 µM (≈ 2.36 µg/mL); with M. tuberculosis (H37Rv) (setting [13]), 2.3 µM (≈ 0.861 µg/mL); in the series on M. tuberculosis (H37Rv) (setting [14]), 6.3 µM (≈ 2.36 µg/mL); with M. tuberculosis (H37Rv) (setting [15]), 4.7 µM (≈ 1.76 µg/mL); with M. tuberculosis (H37Rv) (setting [16]), 2.3 µM (≈ 0.861 µg/mL). In addition, in the series with M. tuberculosis (H37Rv) (relative to comparator of the series (21 vs thiophenes; 42 vs 24)), the “loss of MIC potency” value stood at 10 fold. In series [4], the “Microsomal Cli” value is under 0.5 mL/min/g. Further, in series [4], the “Mouse micro Cl” value is under 0.5 mL/min/g. For the same compound, the IC50 in the series with HepG2 cells is over 100 µM.

On to `Cc1noc(-c2nc(C)oc2NC(=O)c2c(F)c(F)c(F)c(F)c2F)n1` [Compound 43, Cc1noc(n1)-c1nc(oc1NC(=O)c1c(c(c(c(c1F)F)F)F)F)C], for which the “reduction in bacterial DNA in lungs compared to the untreated control” value in the series with M. tuberculosis H37Rv [5] is reported as “no reduction in DNA levels”. Moreover, in series [6], the bioavailability result is “very good”. In addition, in series [6], the clearance entry is given as “very good”. Besides, in series [6], the half-life entry is “moderate”. Moreover, the volume of distribution entry in [6] was “limited”. Also, the solubility kinetic in “physchem [1]” (setting [12]) and in “physchem [1]” (read-out: Kin. Sol) was 196 µM (≈ 73.3 µg/mL) each time. The results for the “CFU reduction relative to input bacterial counts” value with M. tuberculosis H37Rv [7] (treatment for 3 days) and in the series on M. tuberculosis H37Rv [7] (treatment for 7 days) were about 1 log units and about 2 log units, respectively. For the same compound, the chromatographic logD in “physchem [2]” is 1.2. In addition, the “Hepatocyte Cli” value in series [3] is 3.4 mL/min/g. The “Mouse Heps Cl” value in series [3] is listed as 3.4 mL/min/g. Further, the MIC in the series with M. tuberculosis (H37Rv) (read-out: H37Rv MIC A) was 0.8 µM (≈ 0.299 µg/mL); with M. tuberculosis (H37Rv) (read-out: H37Rv MIC B), 1.8 µM (≈ 0.674 µg/mL); in the series on M. tuberculosis (H37Rv) (setting [13]), 0.8 µM (≈ 0.299 µg/mL); in the series with M. tuberculosis (H37Rv) (setting [14]), 1.8 µM (≈ 0.674 µg/mL); with M. tuberculosis (H37Rv) (setting [15]), 1.8 µM (≈ 0.674 µg/mL); in the series with M. tuberculosis (H37Rv) (setting [16]), 0.7 µM (≈ 0.262 µg/mL). For the same compound, the “Microsomal Cli” value in series [4] is on record as under 0.5 mL/min/g. Besides, in [4], the “Mouse micro Cl” value was under 0.5 mL/min/g. Further, in series [8] (after 90 min, glutathione/NADPH), the parental material remaining turned out to be 57%. Moreover, the “increase of Cmax in the animal efficacy study versus oral PK study” value in series [9] is on record as under 3 fold. Also, the IC50 in the series with HepG2 cells is over 100 µM. Also, the area under the curve AUC(0-t) (in general, the area under the concentration-time curve up to a stated or last time point) in the series “in vivo” turned out to be 167 µg·h/mL. In addition, the concentration in “in vivo” peaked (Cmax) at 30000 ng/mL. Also, the “concentration required to exert a cidal effect” value in [10] was found to be 10 µM. In addition, the fraction unbound (usually free concentration divided by total concentration) in the series “in vitro” was 0.03.

Take `COc1c(N2C[C@@H]3CCCN[C@@H]3C2)c(F)cc2c(=O)c(C(=O)O)cn(C3CC3)c12` [Moxifloxacin, reference compound]: the “reduction in bacterial DNA in lungs compared to the untreated control” value in the series on M. tuberculosis H37Rv [5] was about 3 log.

Consider `COC(=O)c1c(NC(=O)c2c(F)c(F)c(F)c(F)c2F)sc2c1CCCCC2` [TP2, reference compound], for which the “effect on mycolic acid biosynthesis” value in series [11] is reported as “inhibited mycolic acid biosynthesis”. The solubility kinetic in the series “physchem [1]” (water, kinetic from dmso stock) is 0.2 µM (≈ 0.0839 µg/mL). In “physchem [2]”, this compound displayed a chromatographic logD of 4.6. Also, in series [3], the “Mouse Heps Cl” value came to 43.2 mLmin/g. Further, the MIC with M. tuberculosis (H37Rv) (read-out: H37Rv MIC A) came out at 0.11 µM (≈ 0.0461 µg/mL); in the series with M. tuberculosis (H37Rv) (read-out: H37Rv MIC B), 1.2 µM (≈ 0.503 µg/mL). Also, the “Mouse micro Cl” value in series [4] was determined as 15 mLmin/g. Moreover, the “time to complete elimination of parent” value in series [8] (glutathione conjugation) is on record as at most 6 min. Further, the IC50 with HepG2 cells came out at 13 µM.

Turning to `CCOC(=O)c1c(NC(=O)c2c(F)c(F)c(F)c(F)c2F)sc(C(N)=O)c1C` [TP4, reference compound], the “effect on mycolic acid biosynthesis” value in series [11] was “inhibited mycolic acid biosynthesis”. Besides, the solubility kinetic in the series “physchem [1]” (water, kinetic from dmso stock) amounted to 1.1 µM (≈ 0.465 µg/mL). Further, the chromatographic logD in “physchem [2]” amounted to 3.4. Besides, the “Mouse Heps Cl” value in [3] is given as over 50 mLmin/g. The MIC in the series on M. tuberculosis (H37Rv) (read-out: H37Rv MIC A) was determined as 0.03 µM (≈ 0.0127 µg/mL); with M. tuberculosis (H37Rv) (read-out: H37Rv MIC B), 0.26 µM (≈ 0.11 µg/mL). Also, the “Mouse micro Cl” value in [4] worked out at 13 mLmin/g. Also, in the series on HepG2 cells, the IC50 was 4.3 µM.
